According to patent US9662404B2, “Compositions and methods for the delivery of molecules into live cells” (The Texas A&M University System, priority 2013, dated 2017):
Ends that are not written are not given here.

How the values were obtained:
[1] = system: neuronal cell line Neuro-2a and primary human dermal fibroblasts (HDF); experiment: Cellular localization of dTAT in neuronal and primary cells; format: cell-based; conditions: 1 h incubation
Method: FIG. 11 illustrates the cellular localization of dTAT after 1 h incubation with neuronal cell line Neuro-2a (left panel) and primary human dermal fibroblasts (HDF) (right panel). Cells were incubated with dTAT, washed, and imaged with a 100× objective. […] FIG. 12 graphically illustrates the proliferation rate (absorbance in an MTT assay) of treated and untreated HeLa, Neuro-2a, and HDF cells.

[2] = system: HeLa cells expressing SNAPH2B; experiment: Endosomal leakage efficiency with SNAP-Surface 488; conditions: 2.5 μM dTAT with 5 μM SNAP-Surface 488, 1 h
Method: HeLa cells were incubated with 5 μM SNAP-Surface® 488 for 1 h, washed and imaged. […] It should be noted that SNAP-Surface® 488 fluorescence is quenched (80%) before it reacts with the SNAP fusion tag.
HeLa cells were seeded in 8-well dishes, grown and washed as described in the prior section. Cells were then co-incubated with 5 M delivery peptide and with the cargo at the corresponding concentration for 1 h at 37° C. Cells were washed 3 times with PBS and nrL-15 and placed on the microscope. Images were acquired as described before. For transfection and expression of SNAP-H2B and TagCFP-mito, plasmids were mixed with Lipofectamine™ 2000 reagent in opti-MEM media and incubated at room temperature for 30 min. The DNA complex was added to previously seeded HeLa cells (80% confluent) on an 8-well dish and cells were kept at 37° C. for 24 h.

[3] = system: HeLa transfected with the pCALNL-GFP plasmid; format: cell-based; conditions: delivery peptide 5 μM in the presence of TAT-Cre 1 μM, 1 h
Method: The number of cells in the images was approximately the same as assessed by bright field microscopy (1,000 cells/experiment, experiments in triplicate, average and standard deviations represented). Scale bars, 100 μM.
To further confirm that functional proteins can penetrate cells upon incubation with dTAT, delivery of Cre recombinase was tested. In this assay, Cre induces recombination of a loxP-STOP-loxP sequence upstream of the egfp gene of a reporter plasmid.

HeLa cells [4] = experiment: Cell proliferation, MTT assay; format: cell-based; conditions: 5 μM, 1 h; up to 36 h after incubation
Method: In order to determine cells that had compromised plasma membranes, cells were treated with SYTOX® Green (SYTOX® Blue in some cases) and Hoechst (Invitrogen, Carlsbad, Calif.). SYTOX® dyes are cell-impermeable and stain the DNA of cells with compromised plasma membranes. The Hoechst dye is cell permeable and stains the DNA of all cells. Images were acquired using the green and blue filter. The green and blue images were used to count cells with a blue or green stained nucleus. Image J was used to count the dead (green) and total cells (blue). Cytotoxicity was determined from the ratio of SYTOX® Green positive cells/total number of cells. An MTT-assay was performed to determine the effect of the peptide on cell proliferation. Cells were seeded in a 6-well dish, grown and washed as described above. One well from the dish was incubated with 5 μM dTAT at 37° C. for 1 h. A second well was left untreated and served as control. […] Cells were trypsinized and seeded into 96-well dishes containing 200 μL of DMEM. The cells were then allowed to attach to the bottom of the dish for 12 h. […] After the incubation each sample was mixed and the absorbance at 600 nm was measured. […] A second control consisted of cells treated with the delivery peptide but to which no MTT was added to subtract the contribution of TMR from the measured absorbance. The absorbance of the negative control was subtracted from all samples.

HeLa cells [5] = experiment: dTAT-induced cytosolic release of DEAC-K9 trapped inside endosomes; format: cell-based; conditions: 5 μM DEAC-K9 1 h, wash, 5 μM dTAT 1 h
Method: FIGS. 8A-8C illustrate that dTAT mediates endosomal escape. (FIG. 8A) Effect of endocytic inhibitors on the cellular distribution of dTAT. HeLa cells were pre-treated with 50 μM amiloride or 200 nM bafilomycin for 30 and 20 min respectively, washed, and incubated with 5 μM dTAT and inhibitor. […] Scale bar, 10 μm. […] A schematic illustration of the experimental steps is shown (top). First, cells were incubated with 5 μM DEAC-K9 for 1 h and washed. Inverted monochrome images show a fluorescence punctuate distribution after incubation with DEAC-K9 alone. The same cells were then incubated with 5 μM dTAT for 1 h. Images show a redistribution of DEAC-K9 to the cytosol and nucleus (inhibited by bafilomycin). Scale bars, 10 μm. (FIG. 8C) The endosomolytic activity of dTAT is highly efficient. HeLa cells expressing SNAPH2B were incubated with 5 μM dTAT and 5 μM SNAP-Surface® 488. Fluorescence images show accumulation of SNAP-Surface® 488 in the nucleus. […] Small panels show cytosolic and nuclear fluorescence of TMR. Scale bars, 10 μm.
To test whether endosomal escape is involved in delivery of dTAT, the effects of amiloride, a macropinocytosis inhibitor, and bafilomycin, an inhibitor of endosomal acidification, were assessed. […] Cells were then washed and incubated with dTAT (FIG. 8B). […] This redistribution was however inhibited by bafilomycin.

cells = experiment: Whole-genome microarray analysis after dTAT treatment; format: cell-based; conditions: 5 μM, 1 h; analysis immediately, 1 h or 24 h after treatment
Method: To better determine the effect of dTAT exposure on a cell, a whole-genome microarray analysis was performed on cells treated with 5 μM dTAT for 1 h to determine whether transcriptional patterns are influenced. Analysis was performed immediately, 1 h, or 24 h after dTAT treatment. […] The straight lines represent 2-fold intensity change cut-offs.

EGFP = EGFP (Aequorea victoria, UniProt P42212, F64L/H231L/S65T); conditions: EGFP 1 μM, dTAT 5 μM, excitation 488 nm
Method: Fluorescence emission spectra were obtained using an SLM-8000C fluorometer upgraded with the phoenix package (ISS, Champaign, Ill.) and Vinci v.1.6 PC software (ISS). The experiments were conducted using a quartz cuvette at room temperature. The samples were excited at 488 nm (slit width=1 mm) and the fluorescence emission was scanned from 500 to 650 nm (slit width=1 mm). All samples (EGFP (1 μM) and dTAT (5 μM)) were prepared using nrL-15.

Question: For “(CK(TMR)TAT)2 (CK(TMR)RKKRRQRRRG; also: dimer) [dTAT]”, which “cellular localization of fluorescence” value [1] is on record?
Answer: cytosolic release

Question: What about the cytosolic release [2] of the same substance?
Answer: does not result in significant cytosolic release

Question: What about the “percentage of EGFP+ cells” value [3] of the same substance?
Answer: 47%

Question: And the “cell growth versus untreated cells” value (HeLa cells [4])?
Answer: grow at the same rate as untreated cells

Question: What about the “distribution of DEAC-K9 fluorescence after subsequent addition of dTAT” value (HeLa cells [5]) of the same substance?
Answer: redistribution of the DEAC signal throughout the cytosol and nucleus

Question: What about the “transcriptional response on a whole-genome scale” value (cells) of the same substance?
Answer: minimal transcriptional perturbations

Question: What about the “binding to EGFP” value (EGFP) of the same substance?
Answer: does not bind to EGFP
